From US5563145A, “Rapamycin 42-oximes and hydroxylamines” (American Home Products Corporation, priority 1994, dated 1996)
Where two headings read alike, the source gives them in different places.

Tests used:
[1] = system: cells from the thymus of normal BALB/c mice (T-cell proliferation); assay: comitogen-induced thymocyte proliferation procedure (LAF); format: cell-based; conditions: for IC50: read-out: LAF IC50; for LAF ratio (compared with rapamycin): ratio >1: inhibited thymocyte proliferation to a greater extent than rapamycin; for LAF percent inhibition of T-cell proliferation: at 0.1 μM
Procedure: (§1) Immunosuppressive activity for representative compounds of this invention was evaluated in an in vitro standard pharmacological test procedure to measure the inhibition of lymphocyte proliferation (LAF) and in two in vivo standard pharmacological test procedures. The pinch skin graft test procedure measures the immunosuppressive activity of the compound tested as well as the ability of the compound tested to inhibit or treat transplant rejection. The adjuvant arthritis standard pharmacological test procedure measures the ability of the compound tested to inhibit immune mediated inflammation. The adjuvant arthritis test procedure is a standard pharmacological test procedure for rheumatoid arthritis. The procedures for these standard pharmacological test procedures are provided below.
The comitogen-induced thymocyte proliferation procedure (LAF) was used as an in vitro measure of the immunosuppressive effects of representative compounds. Briefly, cells from the thymus of normal BALB/c mice are cultured for 72 hours with PHA and IL-1 and pulsed with tritiated thymidine during the last six hours. Cells are cultured with and without various concentrations of rapamycin, cyclosporin A, or test compound. Cells are harvested and incorporated radioactivity is determined. Inhibition of lymphoproliferation is assessed as percent change in counts per minute from non-drug treated controls. For each compound evaluated, rapamycin was also evaluated for the purpose of comparison. An IC50 was obtained for each test compound as well as for rapamycin. […] The results obtained are provided as an IC50 and as the percent inhibition of T-cell proliferation at 0.1 μM. […] A positive ratio indicates immunosuppressive activity. […] Calculation of the ratio is shown below. [formula]

[2] = system: pinch skin graft from male BALB/c donors transplanted to male C3H(H-2K) recipients; assay: in vivo pinch skin graft survival test procedure; parameters: species or system mice: male BALB/c donors, male C3 H(H-2K) recipients; conditions: 4 mg/kg, i.p.; untreated control grafts usually rejected within 6-7 days
Procedure: as §1
Representative compounds of this invention were also evaluated in an in vivo test procedure designed to determine the survival time of pinch skin graft from male BALB/c donors transplanted to male C3 H(H-2K) recipients. The method is adapted from Billingham R. E. and Medawar P. B., J. Exp. Biol. 28:385-402, (1951). Briefly, a pinch skin graft from the donor was grafted on the dorsum of the recipient as a allograft, and an isograft was used as control in the same region. The recipients were treated with either varying concentrations of test compounds intraperitoneally or orally. Rapamycin was used as a test control. Untreated recipients serve as rejection control. The graft was monitored daily and observations were recorded until the graft became dry and formed a blackened scab. This was considered as the rejection day. The mean graft survival time (number of days ±S.D.) of the drug treatment group was compared with the control group. Results are expressed as the mean survival time in days.

[3] = system: uninjected hind paw inflammation (immune mediated, Freund's Complete Adjuvant); assay: adjuvant arthritis standard pharmacological test procedure; format: in vivo, male inbred Wistar Lewis rats; conditions: 2 mg/kg, oral, 7 doses, day 16; more negative = more potent
Procedure: as §1
The adjuvant arthritis standard pharmacological test procedure measures the ability of test compounds to prevent immune mediated inflammation and inhibit or treat rheumatoid arthritis. The following briefly describes the test procedure used. A group of rats (male inbread Wistar Lewis rats) are pre-treated with the compound to be tested (1 h prior to antigen) and then injected with Freud's Complete Adjuvant (FCA) in the right hind paw to induce arthritis. The rats are then orally dosed on a Monday, Wednesday, Friday schedule from day 0-14 for a total of 7 doses. Both hind paws are measured on days 16, 23, and 30. The difference in paw volume (mL) from day 16 to day 0 is determined and a percent change from control is obtained. The left hind paw (uninjected paw) inflammation is caused by T-cell mediated inflammation and is recorded as % change from control. The right hind paw inflammation, on the other hand, is caused by nonspecific inflammation. Compounds were tested at a dose of 2 mg/kg.

Candida albicans = conditions: in vitro and in vivo; cited from earlier work
[4] = system: formation of IgE-like antibodies; conditions: in vivo; cited from earlier work
[5] = system: experimental allergic encephalomyelitis model; conditions: a model for multiple sclerosis; cited from earlier work
adjuvant arthritis model = conditions: a model for rheumatoid arthritis; cited from earlier work
[6] = BALB/c mouse thymocytes, PHA and IL-1, 72 hours, tritiated thymidine last six hours

Molecule | IC50 [1, 6] [nM] | LAF ratio (compared with rapamycin) [1] | Skin graft survival (mean graft survival time ± S.D.) [2] [days] | Percent change in adjuvant arthritis versus control (uninjected paw) [3] [%] | other results
42-Deoxy-42-oxorapamycin 42-[O-(phenylmethyl)]-oxime [Example 8] | 21.7 | 0.03 |  |  | 
42-Deoxy-42-oxorapamycin 42-[O-(prop-2-ynyl)]-oxime [Example 10] | 8.13 | 0.08 | 8.0 ± 1.1 |  | 
42-Deoxy-42-oxorapamycin 42-[O-(pyridin-4-ylmethyl)]-oxime [Example 6] | 1.8 | 0.31 | 8.0 ± 0.9 |  | 
CO[C@H]1C[C@@H]2CC[C@@H](C)[C@@](O)(O2)C(=O)C(=O)N2CCCC[C@H]2C(=O)O[C@H]([C@H](C)C[C@@H]2CCC(=NO)[C@H](OC)C2)CC(=O)[C@H](C)/C=C(\C)[C@@H](O)[C@@H](OC)C(=O)[C@H](C)C[C@H](C)/C=C/C=C/C=C/1C [Example 2, 42-Deoxo-42-(hydroxyimino)rapamycin] | 3.88 | 0.85 | 10.8 ± 0.4 |  | 
CO[C@H]1C[C@@H]2CC[C@@H](C)[C@@](O)(O2)C(=O)C(=O)N2CCCC[C@H]2C(=O)O[C@H]([C@H](C)C[C@@H]2CCC(NO)[C@H](OC)C2)CC(=O)[C@H](C)/C=C(\C)[C@@H](O)[C@@H](OC)C(=O)[C@H](C)C[C@H](C)/C=C/C=C/C=C/1C (stereo partly shown) [Example 3, 42-Deoxo-42-(hydroxyamino)rapamycin] | 5.6 | 0.18 | 9.6 ± 0.0 | -84 | 
CO[C@H]1C[C@@H]2CC[C@@H](C)[C@@](O)(O2)C(=O)C(=O)N2CCCC[C@H]2C(=O)O[C@H]([C@H](C)C[C@@H]2CCC(=NOC(N)=O)[C@H](OC)C2)CC(=O)[C@H](C)/C=C(\C)[C@@H](O)[C@@H](OC)C(=O)[C@H](C)C[C@H](C)/C=C/C=C/C=C/1C [Example 4, 42-Deoxy-42-oxorapamycin-42-O-carbamoyloxime] | 2 | 0.25 | 9.5 ± 1.1 |  | 
CO[C@H]1C[C@@H]2CC[C@@H](C)[C@@](O)(O2)C(=O)C(=O)N2CCCC[C@H]2C(=O)O[C@H]([C@H](C)C[C@@H]2CCC(=NOCc3ccccn3)[C@H](OC)C2)CC(=O)[C@H](C)/C=C(\C)[C@@H](O)[C@@H](OC)C(=O)[C@H](C)C[C@H](C)/C=C/C=C/C=C/1C [Example 5, 42-Deoxy-42-oxorapamycin 42-[O-(pyridin-2-ylmethyl)]-oxime] | 1.5 | 0.40 | 7.8 ± 0.8 | -53 | 
COC1CC2CCC(C)C(O)(O2)C(=O)C(=O)N2CCCCC2C(=O)OC(C(C)CC2CCC(=NOC(C)(C)C)C(OC)C2)CC(=O)C(C)C=C(C)C(O)C(OC)C(=O)C(C)CC(C)C=CC=CC=C1C (stereo not shown) [Example 7, 2-Deoxy-42-oxoxapamycin 42-[O-(tert-butyl)]-oxime] |  |  |  |  | LAF percent inhibition of T-cell proliferation [1]: 49%
C=CCON=C1CCC(CC(C)C2CC(=O)C(C)C=C(C)C(O)C(OC)C(=O)C(C)CC(C)C=CC=CC=C(C)C(OC)CC3CCC(C)C(O)(O3)C(=O)C(=O)N3CCCCC3C(=O)O2)CC1OC (stereo not shown) [Example 9, 42-Deoxy-42-oxorapamycin 42-(O-allyl)-oxime] |  |  |  |  | LAF percent inhibition of T-cell proliferation [1]: 43%
CO[C@H]1C[C@@H]2CC[C@@H](C)[C@@](O)(O2)C(=O)C(=O)N2CCCC[C@H]2C(=O)O[C@H]([C@H](C)C[C@@H]2CC[C@@H](O)[C@H](OC)C2)CC(=O)[C@H](C)/C=C(\C)[C@@H](O)[C@@H](OC)C(=O)[C@H](C)C[C@H](C)/C=C/C=C/C=C/1C [rapamycin] |  |  | 11.67 ± 0.63 | -70 | antifungal activity, particularly against Candida albicans (Candida albicans): antifungal activity, particularly against Candida albicans; IC50 ([1]; Mus musculus, T-cell): 0.5 to 3.3 nM; inhibition of formation of IgE-like antibodies [4]: effectively inhibited; effect in experimental allergic encephalomyelitis model [5]: effective; effect in adjuvant arthritis model (adjuvant arthritis model): effective
